The source of these data is US20140308317A1, “Polymeric Compounds And Methods Of Making And Using The Same” (CELLCEUTIX CORPORATION, priority 2012, published 2014).

Converted amounts (≈) assume the structure as drawn.

A word on the MIC50: it is the lowest concentration that inhibits either 50% of growth or 50% of the strains tested, depending on the study. For orientation: EC50 means the concentration at which the effect is half-maximal.

Data set [1] relates to Enterococcus faecalis ATCC 29212. As to the kind of experiment: Minimum Inhibitory Concentration (MIC), modified microbroth dilution. The data set is classed as cell-based. The settings on record: E. faecalis (29212), overnight incubation (18 hours).
Data set [2] deals with Klebsiella pneumoniae ATCC 13883. The data set is described as above. The data set is classed as cell-based. Conditions: K. pneumoniae (13883), overnight incubation (18 hours).
Data set [3] concerns E. Coli ATCC 25922. The data set is described as above. The class given is cell-based. Conditions: E. coli (25922), overnight incubation (18 hours).
Data set [4] concerns Staphylococcus aureus ATCC 27660. The description is as above. The data set is classed as cell-based. Conditions: S. aureus (27660), overnight incubation (18 hours).
For data set [5], the system named is NIH/3T3 cells, CRL-1658. Briefly: Cytotoxicity colorimetric (tetrazolium) assay. The data set is classed as cell-based, mouse. The settings on record: NIH/3T3 cells; one hour with compound in serum-free media. The essentials: (§1)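 HepG2 (MEM, 10% FBS) and NIH/3T3 (DMEM, 10% BCS) monolayers seeded at 2×10^4 cells/well 24 h before use, then exposed to compounds for one hour in serum-free medium. After return to serum-containing medium, viable cells read by tetrazolium bioreduction to formazan. EC50 in μg/mL from four-parameter logistic fit.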

Data set [6] relates to HepG2, HB-8065. As to the kind of experiment: Cytotoxicity colorimetric (tetrazolium) assay. The class given is cell-based, human. The settings on record: HepG2 cells; one hour with compound in serum-free media. The essentials:
as §1

The test system of data set [7] is Pseudomonas aeruginosa ATCC 10145. Briefly: Minimum Inhibitory Concentration (MIC), modified microbroth dilution. The settings on record: P. aeruginosa (10145), overnight incubation (18 hours). The class given is cell-based. (Dilution methods test growth across graded concentrations, often in twofold steps.)
For data set [8], the system named is S. enteritidis ATCC 13076. Briefly: Time-kill study. The class given is cell-based. How it is done:
Time-kill studies of the compounds versus S. enteritidis ATCC 13076, E. coli ATCC25922, E. coli (lab strain) D31, and S. aureus ATCC27660 were determined in a standard protocol by measuring the time it takes to reduce the initial inoculums 3 log units. Three mL of cation-adjusted Mueller-Hinton medium was inoculated with 20 μL of frozen bacterial stock and incubated at 37° C. on a shaker platform (at 250 rpm) overnight. The suspension was diluted to approximately 5×10^5 cfu/mL and treated with 2×, 5×, 10×, and 20×MIC (MIC=1 μg/mL). The compound stock solutions were prepared at 10 mg/mL in DMSO. Time points were collected and viable bacteria were counted on MH Agar plates after an 18 hour incubation.
The time kill study was carried on Compound 200 against S. enteritidis ATCC 13076.

Data set [9] can be described thus: Cytotoxicity colorimetric (tetrazolium) assay. The data set is classed as cell-based, mouse. The settings on record: mouse, NIH/3T3 cells (CRL-1658), NIH/3T3 cells; one hour with compound in serum-free media. An outline of the steps: as §1
Data set [10] is described as follows: Cytotoxicity colorimetric (tetrazolium) assay. The class given is cell-based, human. The settings on record: human, HepG2 cells (HB-8065), HepG2 cells; one hour with compound in serum-free media. An outline of the steps: as §1

As to `NCCCOc1cc(-c2ccc3sc4ccc(-c5cc(OCCCN)c(OCCCN)c(OCCCN)c5)cc4c3c2)cc(OCCCN)c1OCCCN` [Compound 184], in data set [1], the “MIC50 E. faecalis” value was 6.25 µg/mL (≈ 8.06 µM). Further, in data set [2], the “MIC50 K. Pnuemnoiae” value was 12.5 µg/mL (≈ 16.1 µM). Further, the “MIC50 E. coli” value in data set [3] was 6.25 µg/mL (≈ 8.06 µM). Moreover, the “MIC50 S. aureus” value in data set [4] was determined as 1.56 µg/mL (≈ 2.01 µM). Moreover, the “EC50 NIH 3T3 (cytotoxicity)” value in data set [5] was 57 µg/mL (≈ 73.5 µM). Besides, in data set [6], the “EC50 HepG2 (cytotoxicity)” value turned out to be 100 µg/mL (≈ 129 µM). In addition, the “MIC50 P. Aeruginosa” value in data set [7] was 6.25 µg/mL (≈ 8.06 µM).
Consider `NCCNC(=O)c1cc(C(=O)NCCN)cc(-c2ccc3oc4ccc(-c5cc(C(=O)NCCN)cc(C(=O)NCCN)c5)cc4c3c2)c1` [Compound 168], for which the “MIC50 E. faecalis” value in data set [1] was above 50 µg/mL. Further, the “MIC50 K. Pnuemnoiae” value in [2] is above 50 µg/mL. Moreover, the “MIC50 E. coli” value in data set [3] is above 50 µg/mL. The “MIC50 S. aureus” value in data set [4] came to 3.13 µg/mL (≈ 4.71 µM). Also, in data set [5], the “EC50 NIH 3T3 (cytotoxicity)” value stood at 32.4 µg/mL (≈ 48.7 µM). In addition, the “EC50 HepG2 (cytotoxicity)” value in [6] was 72.6 µg/mL (≈ 109 µM). Moreover, the “MIC50 P. Aeruginosa” value in data set [7] is above 50 µg/mL.
As for `NCCc1cccc(-c2ccc3c(c2)C(=O)c2cc(-c4cccc(CCN)c4)cc(-c4cccc(CCN)c4)c2CC3)c1` [Compound 154], the “MIC50 E. faecalis” value in data set [1] came out at 6.25 µg/mL (≈ 11 µM). Moreover, the “MIC50 K. Pnuemnoiae” value in data set [2] was found to be 6.25 µg/mL (≈ 11 µM). Besides, the “MIC50 E. coli” value in data set [3] stood at 1.56 µg/mL (≈ 2.76 µM). Further, the “MIC50 S. aureus” value in data set [4] worked out at 0.78 µg/mL (≈ 1.38 µM). Besides, the “EC50 NIH 3T3 (cytotoxicity)” value in data set [5] was 53.4 µg/mL (≈ 94.4 µM). Also, the “EC50 HepG2 (cytotoxicity)” value in data set [6] came out at 85.4 µg/mL (≈ 151 µM). The “MIC50 P. Aeruginosa” value in [7] was determined as 6.25 µg/mL (≈ 11 µM).
Consider `NCCCOc1cc(OCCCN)cc(-c2ccc3sc4ccc(-c5cc(OCCCN)cc(OCCCN)c5)cc4c3c2)c1` [Compound 200], for which the “MIC50 E. faecalis” value in [1] stood at 0.39 µg/mL (≈ 0.62 µM). Further, in data set [2], the “MIC50 K. Pnuemnoiae” value is 1.56 µg/mL (≈ 2.48 µM). The results for the “time at which bacterial growth was reduced more than 3 log” value in data set [8] (2×MIC), in [8] (5×MIC) and in data set [8] (10×MIC) were 3.75 hour, 1.55 hour and 1.35 hour, respectively. Further, the “MIC50 E. coli” value in data set [3] came out at 0.78 µg/mL (≈ 1.24 µM). The “MIC50 S. aureus” value in data set [4] is 0.049 µg/mL (≈ 0.0779 µM). In addition, in [5], the “EC50 NIH 3T3 (cytotoxicity)” value was 155 µg/mL (≈ 246 µM). Besides, the “EC50 HepG2 (cytotoxicity)” value in data set [6] was 126 µg/mL (≈ 200 µM). Besides, the “MIC50 P. Aeruginosa” value in [7] worked out at 3.13 µg/mL (≈ 4.98 µM).
Turning to `NCCN(CCN)Cc1ccc(F)c(-c2ccc3sc4ccc(-c5cc(CN(CCN)CCN)ccc5F)cc4c3c2)c1` [Compound 180], in data set [1], the “MIC50 E. faecalis” value is 3.13 µg/mL (≈ 5.19 µM). The “MIC50 K. Pnuemnoiae” value in data set [2] came out at 1.56 µg/mL (≈ 2.59 µM). Besides, the “MIC50 E. coli” value in [3] was 1.56 µg/mL (≈ 2.59 µM). Moreover, in data set [4], the “MIC50 S. aureus” value stood at 0.098 µg/mL (≈ 0.163 µM). The “EC50 NIH 3T3 (cytotoxicity)” value in data set [5] is 43.1 µg/mL (≈ 71.5 µM). Further, the “EC50 HepG2 (cytotoxicity)” value in data set [6] stood at 104 µg/mL (≈ 173 µM). Further, the “MIC50 P. Aeruginosa” value in [7] was determined as 3.13 µg/mL (≈ 5.19 µM).
`NCCCOc1cc(OCCCN)cc(-c2ccc3c(c2)C(=O)c2cc(-c4cc(OCCCN)cc(OCCCN)c4)ccc2CC3)c1` [Compound 156]: the MIC50 amounted to 12.5 µg/mL (≈ 19.1 µM) in data set [1] (Enterococcus faecalis, ATCC29212, read-out: MIC50 E. faecalis); 12.5 µg/mL (≈ 19.1 µM) in [2] (Klebsiella pneumoniae, ATCC13883, read-out: MIC50 K. Pnuemnoiae); 3.13 µg/mL (≈ 4.79 µM) in data set [3] (Escherichia coli, ATCC25922, read-out: MIC50 E. coli); 0.098 µg/mL (≈ 0.15 µM) in [4] (Staphylococcus aureus, ATCC27660, read-out: MIC50 S. aureus); 6.25 µg/mL (≈ 9.57 µM) in data set [7] (Pseudomonas aeruginosa, ATCC10145, read-out: MIC50 P. Aeruginosa). Also, in data set [5], the “EC50 NIH 3T3 (cytotoxicity)” value was 88.1 µg/mL (≈ 135 µM). Further, the values for the EC50 at 1 h in [9] and in data set [10] were 49.4 µg/mL (≈ 75.7 µM) and 74.2 µg/mL (≈ 114 µM), respectively. Besides, the “EC50 HepG2 (cytotoxicity)” value in data set [6] worked out at 143.7 µg/mL (≈ 220 µM).
